Measured values: PMC3625590, “NBM-T-L-BMX-OS01, Semisynthesized from Osthole, Is a Novel Inhibitor of Histone Deacetylase and Enhances Learning and Memory in Rats” (Evidence-based Complementary and Alternative Medicine : eCAM, 2013)

Legend:
[1] = tested on: histone 4 lysine 12 acetylation (AcH4K12); test: Western blot of histone 4 lysine 12 acetylation in brain tissue after behavioural tests; type: in vivo, Sprague-Dawley rats; conditions: 5 mg/kg/d i.p.
Protocol: The hippocampus tissue and primary hippocampal cells were lysed and sonicated in an RIPA buffer (50 mM Tris-HCl (pH 7.4), 150 mM NaCl, 2 mM EDTA, 1% IGEPAL CA-630, 1 mM phenylmethylsulfonyl fluoride (PMSF), 20 μg/mL pepstatin A, 20 μg/mL leupeptin, 20 μg/mL aprotinin, 50 mM NaF, and 1 mM Na3VO4). The protocol was performed as described previously. The lysate was resolved by 8% SDS-PAGE. The proteins resolved by SDS-PAGE were transferred to the PVDF membrane (Millipore, Bedford, MA, USA) and western blotting was conducted with the following antibodies: rabbit anti-acetyl histone 4 lysine 12 and mouse anti-histone 4 (Cell signaling, Danvers, MA, USA). The secondary antibodies used include the HRP-conjugated goat-anti-rabbit IgG antibody and HRP-conjugated goat-anti-mouse IgG antibody (Millipore). The membrane was developed by reacting with a chemiluminescent HRP substrate (Millipore) and exposure to X-ray film. The protein bands were quantified using the NIH Image J Software.

[2] = tested on: naïve rats; test: Passive one-way inhibitory avoidance learning, naïve rats; type: in vivo, Sprague-Dawley rats; conditions: 5 mg/kg/d i.p., 1 day and 7 days after footshock
Protocol: SAHA was supplied by NatureWise Biotech and Medicals Corporation (Taipei, Taiwan). […] (St. Louis, MO, USA). The BMX and SAHA stock (100 mg/mL) was dissolved in DMSO and diluted with saline to a final concentration of 0.5 mg/mL (in 0.5% DMSO/saline). […] SD rats were randomly divided into 3 groups. For the naïve animal experiments, the BMX-injected or SAHA-injected groups were injected with BMX (5 mg/kg/d) or SAHA (5 mg/kg/d) intraperitoneally 7 d prior to behavioral experiments and during the experimentation. The control group received the 0.5% DMSO/saline injection. The injection volume was 10 μL/g of body weight. The injections were performed once per day. For the amnesia experiment, the protocol was adopted from previous studies with modifications. […] The control group received the 0.5% DMSO/saline injection. The injection volume was 10 μL/g of body weight. […] The apparatus consisted of a trough-shaped alley divided by a sliding door that separates an illuminated safety compartment and a dark compartment. A shock generator that produced current was connected to the floor of the dark compartment (UGO Basile, Comerio (VA), Italy). The method used was adopted from that of previous studies with modifications. The behavioral task, including the training and testing procedures, was recorded between 8:00 AM and 6:00 PM. […]

O=C(CCCCCCC(=O)Nc1ccccc1)NO [SAHA, suberoylanilide hydroxamic acid, reference compound]
H4K12 acetylation in amygdala ([1]; 7 days after footshock): showed the highest H4K12 acetylation
H4K12 acetylation in hippocampus ([1]; after novel object recognition task): showed the highest H4K12 acetylation
H4K12 acetylation in hippocampus ([1]; after water-maze experiment): showed the highest H4K12 acetylation
retention time in the illuminated chamber [2]: No difference in retention performance
